These results are taken from patent publication US11241455B2, “Methods of treating disease by metabolic control of T-cell differentiation” (The J. David Gladstone Institutes, a testamentary trust …, priority 2016, dated 2022).

What all share (type): cell-based, mouse
Assay [1] concerns FOXP3 mRNA in iTreg cells. Description: mRNA expression analysis by qRT-PCR in iTreg cells. The following applies: normalized to β-actin. As to the method: At the end of differentiation (day 6), T cells were re-stimulated with plate-coated anti-CD3 and anti-CD28 for 5 hours in the absence of any small-molecule compounds or metabolites. Quantitative reverse transcriptase polymerase chain reaction (qRT-PCR) was performed to evaluate mRNA expression of FOXP3, Il17, Il17f, and Rorc. For differentiating TH17 or iTreg cells, cells were collected on day 2.5 or at the indicated time for mRNA expression analysis. The expression was normalized to β-actin.

The subject of assay [2] is FOXP3 promoter and its intronic CpG island. Description: Methylation analysis by bisulfite sequencing, T cells under iTreg condition. Particulars: iTreg condition (day 5); 0.5 mM dimethyl R-2-HG or AOA; male mice. Here is the method: The method is essentially the same as described previously (Kim, et al. J Exp Med 204 (7), 1543-1551 (2007)). Briefly, genomic DNA was purified with Blood & Cell Culture DNA Midi Kit (Qiagen). Bisufite conversion of genomic DNA was performed using Epitect® bisulfite kit (Qiagen), according to the manufacture's instruction. The PCR product was run on 2% agarose, purified and cloned using TOPO® TA Cloning® Kit with PCR®4. Clones are picked for Sanger sequencing.

Assay [3] relates to differentiating TH17 cells. Description: Intracellular metabolite profiling by LC/MS in differentiating TH17 cells. As to the method: CD4 naïve T cells, differentiating TH17 cells (day 2.5), and differentiating iTreg cells (day 2.5) were obtained as described above. A solution of 80/20 methanol (MeOH)/H2O was used to extract intracellular metabolites. The extracted samples were analyzed with liquid chromatography (LC)/mass spectrometry (MS) metabolomics. 200 ng/mL of extraction standard (L-Glutamic acid-^13C5-^15N-d5) was added into samples, and the peak value for each metabolite was normalized to extraction standard. The data was transformed into Log 2 and clustered. Cell extracts obtained as described above were analyzed for relative abundance of ^13C and ^15N metabolites by liquid chromatography-triple quadrupole mass spectrometry (LC-MS) using scheduled selective reaction monitoring (SRM) for each metabolite of interest, with the detector set to negative mode. Quantitation of intracellular 2-hydroxyglutarate (2HG) was conducted as described previously (Kernesky et al., Blood 2015, 125(2) 296-303).

Assay [4] deals with differentiating TH17 cells. Nature of the assay: 15N-α-glutamine flux analysis (transamination) in differentiating TH17 cells. As to the method:
CD4 naïve T cells, differentiating TH17 or iTreg cells (68 hours) were incubated with fresh media prior to labeling. The cells were then cultured for 4 hours at 37° C. with medium where the glutamine was replaced with the corresponding stable isotope label: 2 mM U-^13C glutamine or 2 mM ^15N-α-glutamine for 4 hours at 37° C. The cells were quickly collected and quickly washed with phosphate buffer saline (PBS), pelleted, and snap frozen in liquid nitrogen. The frozen samples were kept in −80° C. until extraction. Cell extracts were prepared by first adding 80/20 MeOH/H2O at −60° C. to the frozen pellets and collecting the supernatant after centrifugation at 4° C. The extracted samples were analyzed by high-resolution liquid-chromatography-mass spectrometry. Unlabeled glutamine-fed cells were used as background.
For amino acid profiling: The ultra-high pressure liquid chromatography (U-HPLC) system consisted of a Thermo Fisher Scientific (San Jose, USA) U-HPLC pumping system, coupled to an autosampler and degasser. Chromatographic separation of the intracellular metabolites was achieved by usage of a reversed phase Atlantis® T3 (3 μm, 2.1 mm ID×150 mm) column (Waters, Eschborn, Germany) and by implementation of a gradient elution program. […]

[5] abbreviates: differentiating TH17 cells, day 2.5, 0.5 mM AOA.

`NOCC(=O)O` [AOA, (aminooxy)-acetic acid]: the “FOXP3 mRNA expression” value in assay [1] was “promoted transcription of FOXP3”. The “methylation level of FOXP3 promoter and its intronic CpG island” value in assay [2] was “dramatically decreased the methylation levels”. In assay [3] (setting [5]), the “abundance of TCA cycle intermediates (α-KG, succinate, fumarate, malate, citrate)” value is listed as “reduced partially”; the level of glutamate entry is recorded as “slightly higher”; the “reduction of steady-state levels of 2-HG” value stood at 75%. In addition, in assay [3] (re-plotted from FIG. 2a: differentiating TH17 or iTreg cells (day 2.5), absence or presence of AOA), the “level of glutathione, oxidized glutathione, or L-asparate” value is on record as “does not affect”. The “reduction of total intracellular 15N-α-aspartate” value in assay [4] (differentiating TH17 cells fed 2 mM 15N-α-glutamine for 4 hours) was 90%. Moreover, the “de novo synthesis for several amino acids (15N label incorporation)” value in assay [4] (differentiating TH17 cells, 2 mM 15N-α-glutamine for 4 hours) was “significant decreases”.
